In one experiment the target is T1, BRAF V600E (Homo sapiens, UniProt P15056, V600E).
T1 construct: expressed in transfected cells
Briefly: Cellular assay of target protein degradation, T-Rex 293 cells stably transfected with HA-BRAF_V600E (HA immunofluorescence, high content imaging). The class given is cell-based. To be noted: T-Rex 293 HA-BRAF V600E; for DC50: half maximal degradation, read-out: BRaf V600E DC50; for Dmax: maximum degradation observed. The procedure, abridged:
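Cells are plated with 1 ng/mL doxycycline and grown 24 h. Compound is then added (final 1 μM–0.1 nM, 0.1% DMSO) for another 24 h at 37 °C, followed by fixing, HA immunostaining and imaging to obtain DC50 and Dmax.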

For a further experiment, the target named is T2, BRAF G466V (Homo sapiens, UniProt P15056, G466V).
T2 construct: expressed in transfected cells
Briefly: Cellular assay of target protein degradation, T-Rex 293 cells stably transfected with HA-BRAF G466V (HA immunofluorescence, high content imaging). It counts as cell-based. To be noted: T-Rex 293 HA-BRAF G466V; for DC50: half maximal degradation, read-out: BRaf G466V DC50; for Dmax: maximum degradation observed. The procedure, abridged:
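Read-out is HA immunofluorescence by high content imaging, with Hoechst and phalloidin co-staining, giving DC50 and Dmax as a percentage of control. Compound exposure lasts 24 hours at 37° C over 30 nM to 3 pM in 0.1% DMSO, with doxycycline-induced HA-BRAF G466V.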

T2 sequence (P15056 whole entry G466V): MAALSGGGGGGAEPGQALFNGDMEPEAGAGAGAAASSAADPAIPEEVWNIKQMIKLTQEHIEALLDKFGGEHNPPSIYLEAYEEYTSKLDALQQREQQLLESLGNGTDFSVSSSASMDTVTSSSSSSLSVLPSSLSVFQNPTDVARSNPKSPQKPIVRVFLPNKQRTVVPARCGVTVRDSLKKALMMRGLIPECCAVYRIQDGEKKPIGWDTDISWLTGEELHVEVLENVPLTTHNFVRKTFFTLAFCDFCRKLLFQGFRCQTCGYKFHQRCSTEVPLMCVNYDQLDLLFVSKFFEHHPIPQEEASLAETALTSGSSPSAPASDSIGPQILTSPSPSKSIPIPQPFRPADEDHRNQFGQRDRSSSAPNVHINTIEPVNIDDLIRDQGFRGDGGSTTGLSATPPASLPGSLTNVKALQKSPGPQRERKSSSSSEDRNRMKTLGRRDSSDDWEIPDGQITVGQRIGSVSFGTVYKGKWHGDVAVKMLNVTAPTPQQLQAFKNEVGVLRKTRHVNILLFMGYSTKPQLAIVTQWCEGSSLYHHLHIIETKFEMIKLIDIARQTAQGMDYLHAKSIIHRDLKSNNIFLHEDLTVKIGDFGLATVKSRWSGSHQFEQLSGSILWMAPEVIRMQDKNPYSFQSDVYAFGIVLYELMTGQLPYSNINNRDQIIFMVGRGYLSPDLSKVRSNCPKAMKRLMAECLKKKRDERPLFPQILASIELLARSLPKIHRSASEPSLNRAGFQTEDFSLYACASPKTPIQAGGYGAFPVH
T1 sequence (P15056 whole entry V600E): as the sequence (P15056 whole entry G466V) above, with V466G, V600E counted along it

`O=C1CCC(N2Cc3cc(N4CC(CN5CCN(C6(c7ccc(-c8cnc9[nH]cc(C(=O)c%10c(F)ccc(NS(=O)(=O)N%11CC[C@@H](F)C%11)c%10F)c9c8)cc7)CC6)CC5)C4)ccc3C2=O)C(=O)N1` (stereo partly drawn) [Compound 200, (3R)-N-{3-[5-(4-{1-[4-({1-[2-(2,6-dioxopiperidin-3-yl)-1-oxo-2,3-dihydro-1H-isoindol-5-yl]azetidin-3-yl}methyl)piperazin-1-yl]cyclopropyl}phenyl)-1H-pyrrolo[2,3-b]pyridine-3-carbonyl]-2,4-difluorophenyl}-3-fluoropyrrolidine-1-sulfonamide]: on BRAF V600E, the DC50 fell in the range of 50 to 500 nM and the Dmax lay in the range of 35 to 70%. Besides, at BRAF G466V, the DC50 lay in the range of 1 to 10 nM and the Dmax was in the range of 35 to 70%.
For `O=C1CC[C@H](N2Cc3cc(N4CCC(CN5CCN(C6(c7ncc(-c8cnc9[nH]cc(C(=O)c%10c(F)ccc(NS(=O)(=O)N%11CC[C@@H](F)C%11)c%10F)c9c8)cn7)CC6)CC5)CC4)ccc3C2=O)C(=O)N1` [Compound 201, (3R)-N-[3-[5-[2-[1-[4-[[1-[2-[(3S)-2,6-dioxo-3-piperidyl]-1-oxo-isoindolin-5-yl]-4-piperidyl]methyl]piperazin-1-yl]cyclopropyl]pyrimidin-5-yl]-1H-pyrrolo[2,3-b]pyridine-3-carbonyl]-2,4-difluoro-phenyl]-3-fluoro-pyrrolidine-1-sulfonamide], at BRAF V600E, the DC50 was 5 to 50 nM and the Dmax is less than 35%. For the same compound, at BRAF G466V, the DC50 was 1 to 10 nM and the Dmax was in the range of 35 to 70%.
For the compound `O=C1CC[C@H](N2Cc3cc(N4CC(CN5CCN(C6(c7ncc(-c8cnc9[nH]cc(C(=O)c%10c(F)ccc(NS(=O)(=O)N%11CC[C@@H](F)C%11)c%10F)c9c8)cn7)CC6)CC5)C4)ccc3C2=O)C(=O)N1` [Compound 202, (3R)-N-(3-{5-[2-(1-{4-[(1-{2-[(3S)-2,6-dioxopiperidin-3-yl]-1-oxo-2,3-dihydro-1H-isoindol-5-yl}azetidin-3-yl)methyl]piperazin-1-yl}cyclopropyl)pyrimidin-5-yl]-1H-pyrrolo[2,3-b]pyridine-3-carbonyl}-2,4-difluorophenyl)-3-fluoropyrrolidine-1-sulfonamide], at BRAF V600E, the DC50 lay within 50 to 500 nM and the Dmax lay in the range of 35 to 70%. Moreover, at BRAF G466V, the DC50 lay within 1 to 10 nM and the Dmax lay in the range of 35 to 70%.
For the compound `CCc1c(NS(=O)(=O)N2CC[C@@H](F)C2)ccc(F)c1C(=O)c1c[nH]c2ncc(-c3ccc(N4CCC(CN5CCC(c6ccc7c(c6)CN([C@H]6CCC(=O)NC6=O)C7=O)CC5)CC4)cc3)cc12` [Compound 203, (3R)—N-{3-[5-(4-{4-[(4-{2-[(3S)-2,6-dioxopiperidin-3-yl]-1-oxo-2,3-dihydro-1H-isoindol-5-yl}piperidin-1-yl)methyl]piperidin-1-yl}phenyl)-1H-pyrrolo[2,3-b]pyridine-3-carbonyl]-2-ethyl-4-fluorophenyl}-3-fluoropyrrolidine-1-sulfonamide], on BRAF V600E, the DC50 is less than 5 nM and the Dmax fell in the range of 35 to 70%. Moreover, on BRAF G466V, the DC50 is less than 1 nM and the Dmax is 35 to 70%.
Take `CC(C)CS(=O)(=O)Nc1ccc(F)c(C(=O)c2c[nH]c3ncc(-c4ccc(N5CCC(CN6CCC(c7ccc8c(c7)CN([C@H]7CCC(=O)NC7=O)C8=O)CC6)CC5)cc4)cc23)c1F` [Compound 204, N-{3-[5-(4-{4-[(4-{2-[(3S)-2,6-dioxopiperidin-3-yl]-1-oxo-2,3-dihydro-1H-isoindol-5-yl}piperidin-1-yl)methyl]piperidin-1-yl}phenyl)-1H-pyrrolo[2,3-b]pyridine-3-carbonyl]-2,4-difluorophenyl}-2-methylpropane-1-sulfonamide]: at BRAF V600E, the DC50 was less than 5 nM and the Dmax fell in the range of 35 to 70%. Besides, on BRAF G466V, the half-maximal degradation concentration (DC50) is less than 1 nM and the Dmax lay within 35 to 70%.

Usually DC50 stands for the concentration giving 50% degradation. By Dmax is commonly meant the largest share of the target that was removed. Lower therefore signals shallow degradation.

The values above are taken from patent US12180193B2, “Accelerating fibrosarcoma protein degrading compounds and associated methods of use” (Arvinas Operations, Inc., priority 2020, dated 2024).
